Data on 6 molecules can be found in PubChem BioAssay (NCI).

Several values for one entry are separate records, joined by “and”; a condition that tells them apart may be missing. Equal entries are not always repeated.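 Growth conditions: 96-well plates. Treatment: test compound, 48 hours, 5 concentrations. Analysis: linear interpolation between bracketing concentrations; unreached endpoints set to highest concentration. Here, GI50 denotes the concentration required for 50% inhibition of growth. TGI: total growth inhibition.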

Some test systems named below: HCT-116 colon; HOP-92 NSCLC; HT29 colon; KM12 colon; MDA-MB-231 breast; NCI-H226 lung; SK-MEL-28 melanoma; SNB-75 CNS; U251 CNS; UO-31 renal.
Common to all, as to experiment: DTP human tumour cell line panel, 48 h

For orientation: GI50 means the concentration giving 50% growth inhibition. For orientation: TGI means the concentration giving total growth inhibition. A higher TGI goes with lower sensitivity of the cells. As for `Cn1cc(/C=C\[N+](=O)[O-])c2ccccc21`, the GI50 was 19 µM in the experiment on HCT-116 colon; 30.6 µM in the experiment on HOP-92 NSCLC; 21.4 µM in the experiment with HT29 colon; 34.9 µM with KM12 colon; 23.4 µM in the experiment on MDA-MB-231 breast; 53.3 µM in the experiment with NCI-H226 lung. The GI50 with SK-MEL-28 melanoma was 23.3 µM; with SNB-75 CNS, 26.2 µM; in the experiment with U251 CNS, 36.5 µM; with UO-31 renal it was greater than 100 µM. For the same molecule, the TGI in the experiment with HCT-116 colon was 43 µM; in the experiment with HOP-92 NSCLC it was greater than 100 µM; in the experiment on HT29 colon it was 39.8 µM; in the experiment with KM12 colon it was greater than 100 µM; in the experiment with MDA-MB-231 breast, 78.8 µM; in the experiment with NCI-H226 lung it was greater than 100 µM. Moreover, the total growth inhibition concentration (TGI) in the experiment on SK-MEL-28 melanoma was 50.3 µM; with SNB-75 CNS, 75.8 µM; in the experiment with U251 CNS, greater than 100 µM; with UO-31 renal, greater than 100 µM.
Turning to `O=C1Nc2ccc(Cl)cc2/C1=C\c1c(-c2ccc(Cl)cc2)nc2sc(C3CC3)nn12`, the GI50 in the experiment with HCT-116 colon is 3 µM; in the experiment with HOP-92 NSCLC, 2.01 µM; in the experiment on HT29 colon it was 5.61 µM; with KM12 colon, 15.8 µM; in the experiment with MDA-MB-231 breast, 2.67 µM; in the experiment on NCI-H226 lung, 1.7 µM. For the same molecule, the GI50 with SK-MEL-28 melanoma was 3.49 µM; in the experiment on SNB-75 CNS, 1.38 µM; with U251 CNS, 3.29 µM; in the experiment with UO-31 renal, 2.63 µM. In addition, the TGI was 11.4 µM with HCT-116 colon; 5.89 µM in the experiment on HOP-92 NSCLC; 17.4 µM in the experiment on HT29 colon; greater than 100 µM in the experiment with KM12 colon; 13 µM with MDA-MB-231 breast; 4.68 µM in the experiment with NCI-H226 lung. The total growth inhibition concentration (TGI) with SK-MEL-28 melanoma turned out to be 13.7 µM; with SNB-75 CNS, 3.19 µM; in the experiment with U251 CNS it was 13.1 µM; with UO-31 renal, 14.8 µM.
With `Cc1ccc(CNc2ccc(Br)cc2)cc1`, the TGI is greater than 100 µM in the experiment with HCT-116 colon; 65.3 µM in the experiment on HOP-92 NSCLC; 93.4 µM in the experiment with HT29 colon; greater than 100 µM in the experiment with KM12 colon; greater than 100 µM in the experiment with MDA-MB-231 breast; greater than 100 µM in the experiment on NCI-H226 lung. The TGI in the experiment with SK-MEL-28 melanoma was greater than 100 µM; in the experiment with SNB-75 CNS, greater than 100 µM; in the experiment with U251 CNS, greater than 100 µM; in the experiment on UO-31 renal, 49.2 µM.
Turning to `CO[C@H]1C[C@@H]2CC[C@@H](C)[C@@](O)(O2)C(=O)C(=O)N2CCCC[C@H]2C(=O)O[C@H]([C@H](C)C[C@@H]2CC[C@@H](OC(=O)C(C)(CO)CO)[C@H](OC)C2)CC(=O)[C@H](C)/C=C(\C)[C@@H](O)[C@@H](OC)C(=O)[C@H](C)C[C@H](C)\C=C/C=C/C=C/1C`, the GI50 in the experiment on HCT-116 colon was greater than 10 µM; in the experiment with HOP-92 NSCLC it was 0.00141 µM; in the experiment with HT29 colon, 1.47 µM; in the experiment on KM12 colon, greater than 10 µM; in the experiment with MDA-MB-231 breast, greater than 4.32 µM; with NCI-H226 lung, 0.0273 µM. For the same molecule, the GI50 in the experiment on SK-MEL-28 melanoma is 0.0219 µM; in the experiment on SNB-75 CNS, less than 0.001 µM; with UO-31 renal, 0.00102 µM. Further, the TGI was greater than 10 µM with HCT-116 colon; greater than 8.98 µM in the experiment with HOP-92 NSCLC; greater than 10 µM in the experiment with HT29 colon; greater than 10 µM with KM12 colon; greater than 10 µM with MDA-MB-231 breast; greater than 10 µM with NCI-H226 lung. The TGI with SK-MEL-28 melanoma, in the experiment on SNB-75 CNS, with U251 CNS and in the experiment on UO-31 renal was greater than 10 µM throughout.
Regarding `COC(=O)NC1C(C)OC(OC2C/C=C(/C)C3C=CC4C(OC5CC(OC6CCC(OC7CC(O)C(OC8CCC(O)C(C)O8)C(C)O7)C(C)O6)C(OC(C)=O)C(C)O5)C(C)CC(C)C4C3(C)/C(O)=C3/C(=O)OC4(CC(C=O)=CC(O)C4/C=C\2C)C3=O)CC1(C)[N+](=O)[O-]` (stereo unspecified), the GI50 was 0.146 µM in the experiment with HCT-116 colon; 0.908 µM in the experiment on HOP-92 NSCLC; 0.352 µM in the experiment with HT29 colon; 0.0714 µM in the experiment on KM12 colon; 0.0311 µM in the experiment with SK-MEL-28 melanoma; 1.06 µM with SNB-75 CNS. Further, the GI50 in the experiment on U251 CNS was 0.179 µM; in the experiment with UO-31 renal, 0.254 µM. Moreover, the TGI was 2.05 µM and 0.289 µM with HCT-116 colon; 2.69 µM and 3.32 µM in the experiment on HOP-92 NSCLC; 2.61 µM and 12.8 µM with HT29 colon; 2.04 µM and 0.337 µM in the experiment on KM12 colon; 3.49 µM in the experiment on MDA-MB-231 breast; 2.72 µM in the experiment on NCI-H226 lung. The TGI was 5.14 µM and 3.27 µM in the experiment on SNB-75 CNS; 0.901 µM and 0.499 µM in the experiment on U251 CNS; 3.76 µM and 0.521 µM in the experiment on UO-31 renal.
Turning to `Clc1nccc2c(-c3csc(-c4c[nH]c5ccc(Br)cc45)n3)c[nH]c12`, the GI50 in the experiment with HCT-116 colon is 2.35 µM; in the experiment on HOP-92 NSCLC it was 2.43 µM; with HT29 colon, 2.66 µM; with KM12 colon it was 2.15 µM; in the experiment with MDA-MB-231 breast it was 1.68 µM; with NCI-H226 lung, 2.4 µM. Also, the GI50 with SK-MEL-28 melanoma is 1.85 µM; in the experiment on SNB-75 CNS, 2.37 µM; in the experiment with U251 CNS it was 2.05 µM; with UO-31 renal, 0.932 µM. The TGI was 10.5 µM in the experiment with HCT-116 colon; 6.81 µM with HOP-92 NSCLC; 8.22 µM in the experiment on HT29 colon; 5.7 µM in the experiment on KM12 colon; 4.62 µM in the experiment on MDA-MB-231 breast; 13.8 µM in the experiment on NCI-H226 lung. Also, the concentration for total growth inhibition (TGI) in the experiment with SK-MEL-28 melanoma was 4.16 µM; in the experiment with SNB-75 CNS it was 10.9 µM; with U251 CNS it was 5.02 µM; in the experiment on UO-31 renal it was 11.5 µM.
